Source: BindingDB's records for doi:10.7270/Q2V986KM (Burnham Center For Chemical Genomics, 2011)

Biological target: T1, Carboxy-terminal domain RNA polymerase II polypeptide A small phosphatase 1 (Homo sapiens, UniProt Q9GZU7)
T1 sequence (Q9GZU7 whole entry): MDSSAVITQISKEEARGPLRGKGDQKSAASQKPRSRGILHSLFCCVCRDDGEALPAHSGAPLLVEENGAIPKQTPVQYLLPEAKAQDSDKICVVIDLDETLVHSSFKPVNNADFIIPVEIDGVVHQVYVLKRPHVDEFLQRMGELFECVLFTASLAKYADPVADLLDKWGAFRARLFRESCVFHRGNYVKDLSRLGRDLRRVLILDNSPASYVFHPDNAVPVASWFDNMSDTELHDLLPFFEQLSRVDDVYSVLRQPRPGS
Experiment: Ultra-high-throughput screening actives, CTDSP1 enzyme inhibition, concentration-response testing, biochemical, absorbance detection (AID 540297)

Row | SMILES | IC50
1 | C=CCOc1ccc(CN=Nc2ccc(S(=O)(=O)Nc3ccccc3C(=O)O)cc2[N+](=O)[O-])cc1OC [2-[[4-[2-[(3-methoxy-4-prop-2-enoxy-phenyl)methylidene]hydrazinyl]-3-nitro-phenyl]sulfonylamino]benzoic acid] | 2 µM
2 | C=CC1=C(C(=O)O)N2C(=O)[C@@H](NC(=O)C(N=O)c3csc(N)n3)[C@H]2SC1 (stereo partly drawn) [(6R,7R)-7-[[2-(2-azanyl-1,3-thiazol-4-yl)-2-hydroxyimino-ethanoyl]amino]-3-ethenyl-8-oxidanylidene-5-thia-1-azabicyclo[4.2.0]oct-2-ene-2-carboxylic acid] | 4.48 µM
3 | CC(=NNC(=O)c1cc(-c2cccc([N+](=O)[O-])c2)n[nH]1)C1C=CC=CC1=O (configuration not stated) [3-(3-nitrophenyl)-N'-[(1E)-1-(6-oxo-1-cyclohexa-2,4-dienylidene)ethyl]-1H-pyrazole-5-carbohydrazide] | 1.7 µM
4 | Cc1cccc(NC(=O)CN2C(=O)/C(=N\NC(=O)c3ccccc3O)c3ccccc32)c1 [MLS000548432] | 1.99 µM
5 | Cc1cccc(C(=O)/N=c2\c(C#N)cc3c(=O)n4cccc(C)c4nc3n2Cc2ccco2)c1 [N-[3-cyano-1-(furan-2-ylmethyl)-10-methyl-5-oxodipyrido[3,4-c:1',2'-f]pyrimidin-2-ylidene]-3-methylbenzamide] | 5.58 µM
6 | O=c1c(Cl)c(N=NCc2ccc(Br)cc2)cnn1-c1ccccc1 | > 80 µM
7 | COc1ccc(CN=Nc2ncc(Br)cn2)c(OC)c1 [MLS000856301] | 19.6 µM
8 | O=c1cc(O)[n+]2nc(-c3ccc([N+](=O)[O-])cc3)sc2[n-]1 [SMR000175134] | 5.67 µM
9 | O=C(O)CNC(=O)Cc1sc(NNc2nc(O)cs2)nc1O | 5.27 µM
10 | Cc1[nH][nH]c(=O)c1CCC(=O)NN=Cc1ccco1 | > 80 µM
11 | COC(=O)C1C(COc2ccccc2)=NC(=O)NC1c1ccc2ccccc2c1 (configuration not stated) | 13.8 µM
12 | CCOC(=O)C1C(COC(=O)C=Cc2ccco2)=NC(=O)NC1C (configuration not stated) | 4.25 µM
13 | O=C1Nc2ccc([N+](=O)[O-])cc2/C1=N/NC(=O)c1cc(-c2ccccc2Cl)nc2ccccc12 [2-(2-chlorophenyl)-N'-(2-keto-5-nitro-indol-3-yl)cinchoninohydrazide] | 0.711 µM
14 | C/C(C=NNC(=O)c1ccc(Br)cc1)=C\c1ccccc1 [SMR000140417] | 4.83 µM
15 | COc1ccc(N/C(C)=[N+](\C)CCNS(=O)(=O)c2ccc(Cl)cc2)cc1 | 3.29 µM
16 | O=C(NN=C/C=C/c1ccc(Br)cc1)c1ccc2c(c1)OCO2 [Benzo[1,3]dioxole-5-carboxylic acid [3-(4-bromo-phenyl)-allylidene]-hydrazide] | 4.92 µM
17 | Cc1ccc2c(c1)=C(NNC(=O)c1ccc(NS(=O)(=O)c3cccs3)cc1)C(=O)N=2 [N-[4-[[(5-methyl-2-oxoindol-3-yl)amino]carbamoyl]phenyl]thiophene-2-sulfonamide] | 11.5 µM
18 | O=C(NN=C/C=C\c1ccco1)c1ccccn1 [Pyridine-2-carboxylic acid [(Z)-3-furan-2-yl-prop-2-en-(E)-ylidene]-hydrazide] | 14.5 µM
19 | CC1(CC(=O)NN=CC2C=C([N+](=O)[O-])C(=O)C=C2O)OCCO1 (configuration not stated) [N'-[(E)-(2-hydroxy-5-nitro-4-oxocyclohexa-2,5-dien-1-ylidene)methyl]-2-(2-methyl-1,3-dioxolan-2-yl)acetohydrazide] | 4.41 µM

Row | SMILES | IC50
20 | Cc1ccccc1NC(=O)CN1C(=O)/C(=N\NC(=O)c2ccccc2O)c2ccccc21 [2-{3-[(2-Hydroxy-benzoyl)-hydrazono]-2-oxo-2,3-dihydro-indol-1-yl}-N-o-tolyl-acetamide] | 1.23 µM
21 | Cc1ccc(-c2csc(-c3c(O)cn(NC(=O)c4ccco4)c3N)n2)cc1 [SMR000363171] | 12.9 µM
22 | CON=C(C(=O)N[C@@H]1C(=O)N2C(C(=O)O)=C(COC(N)=O)CS[C@H]12)c1ccco1 | 2.09 µM
23 | COc1cccc(N/C(C)=[N+](\C)CCNS(=O)(=O)c2ccc(Cl)cc2)c1 [SMR000672481] | 3.46 µM
24 | CSc1nnc(C)c(CC=Nc2ccc(F)cc2F)n1 [MLS000707071] | 13.3 µM
25 | O=NCc1cccn1-c1cccc(C(=O)O)c1 [3-[2-(hydroximinomethyl)pyrrol-1-yl]benzoic acid] | 3.09 µM
26 | O=C1C=C(O)/C(=C/NN2C(=O)C3C(C2=O)C2C=CC3C23CC3)C=C1[N+](=O)[O-] (configuration not stated) [MLS000705206] | 4.9 µM
27 | O=C(O)c1cccc(-n2c(O)c3c(c2O)CC(Cl)=CC3)c1 [3-[5-chloranyl-1,3-bis(oxidanylidene)-3a,4,7,7a-tetrahydroisoindol-2-yl]benzoic acid] | 10.3 µM
28 | COc1cc(CN=Nc2nc(O)c(CC(=O)O)s2)ccc1OCc1ccc(Cl)cc1 [2-[2-[2-[[4-[(4-chlorophenyl)methoxy]-3-methoxy-phenyl]methylidene]hydrazinyl]-4-oxidanylidene-1,3-thiazol-5-yl]ethanoic acid] | 12.4 µM
29 | CCOc1cc(CN=Nc2nc(O)c(CC(=O)O)s2)ccc1OCc1ccc(Cl)cc1Cl [2-[2-[(N''E)-N''-[4-(2,4-dichlorobenzyl)oxy-3-ethoxy-benzylidene]hydrazino]-4-keto-2-thiazolin-5-yl]acetic acid] | 2.32 µM
30 | O=C(O)CCC(N=Nc1ccc(S(=O)(=O)N2CCCC2)cc1[N+](=O)[O-])c1cccs1 (configuration not stated) [4-[(2-nitro-4-pyrrolidin-1-ylsulfonyl-phenyl)hydrazinylidene]-4-thiophen-2-yl-butanoic acid] | 15.5 µM
31 | O=C(NN=C/C=C/c1ccccc1)c1cc2c(ccc3ccccc32)o1 [N-[[(E)-3-phenylprop-2-enylidene]amino]-2-benzo[e]benzofurancarboxamide] | 1.72 µM
32 | O=C(CCCC(=O)Nc1cccc(Br)c1)N/N=C/C1C=C([N+](=O)[O-])C=CC1=O (configuration not stated) | 6.26 µM
33 | C[N+](C)(C)CCNC(=O)C1=C/C(=C\N=O)N(Cc2ccccc2)C=C1 | 7.56 µM
34 | Cc1ccc(-n2[nH]c(C)c(CN=Nc3ccc([N+](=O)[O-])cc3[N+](=O)[O-])c2=O)cc1C [(4E)-2-(3,4-dimethylphenyl)-4-[[(2,4-dinitrophenyl)hydrazo]methylidene]-5-methyl-3-pyrazolone] | 3.32 µM
35 | O=C1CC(=O)c2cccc(O)c2C1=O [4,8-dihydroxynaphthalene-1,2-dione] | 44.5 µM
36 | CCOc1cc(CN=Nc2nc(O)c(CC(=O)O)s2)ccc1OCc1ccc(Cl)cc1 [2-[2-[2-[[4-[(4-chlorophenyl)methoxy]-3-ethoxy-phenyl]methylidene]hydrazinyl]-4-oxidanylidene-1,3-thiazol-5-yl]ethanoic acid] | 7.12 µM
37 | COc1ccccc1N/C(C)=[N+](\C)CCNS(=O)(=O)c1ccc(Cl)cc1 [MLS001165874] | 3.73 µM
38 | O=C(NN=C/C(Cl)=C/c1ccccc1)c1ccc2c(c1)OCO2 [SMR001240783] | 8.6 µM

Row | SMILES | IC50
39 | Cc1ccc(C(=O)N[n+]2cc(O)[c-](-c3nc(-c4cccc([N+](=O)[O-])c4)cs3)c2N)cc1 [MLS000391743] | 4.06 µM
40 | CC(=NNC(=O)c1cccc(N=NC(C)c2ccco2)c1)c1ccco1 (configuration not stated) [N-[1-(2-furanyl)ethylideneamino]-3-[2-[1-(2-furanyl)ethylidene]hydrazinyl]benzamide] | 3.17 µM
41 | COc1ccccc1NC(=O)CN1C(=O)/C(=N\NC(=O)c2ccccc2O)c2ccccc21 [2-hydroxy-N-[(Z)-[1-[2-(2-methoxyanilino)-2-oxoethyl]-2-oxo-3-indolylidene]amino]benzamide] | 2.74 µM
42 | CC1=CC(=NNC(=O)c2ccccc2O)c2ccccc2C1=O [MLS000685531] | 5.15 µM
43 | CCCCC1(C)OC(=O)C(=Cc2ccc(-c3ccc(Cl)c(C(=O)O)c3)o2)C(=O)O1 (configuration not stated) | 15.1 µM
44 | C=c1[nH]c(=Cc2ccc(CNC(=O)C(=O)Nc3ccccc3)o2)c(O)c1C(=O)OCC [(5E)-5-[[5-[[(2-anilino-1,2-dioxoethyl)amino]methyl]-2-furanyl]methylidene]-2-methyl-4-oxo-1H-pyrrole-3-carboxylic acid ethyl ester] | 8.55 µM
45 | CC=CC=CC(=O)C1C(=O)[C@]2(C)C(=O)C(C)(O)[C@H]1[C@H]([C@]1(C)OC(=O)C(C)C1=O)[C@H]2C(=O)C=CC=CC (stereo partly drawn) [(1S,4R,6E,7S,8R)-8-[(2E,4E)-hexa-2,4-dienoyl]-2-hydroxy-7-[(2S)-5-hydroxy-2,4-dimethyl-3-oxofuran-2-yl]-6-[(2E,4E)-1-hydroxyhexa-2,4-dienylidene]-2,4-dimethylbicyclo[2.2.2]octane-3,5-dione] | 5.92 µM
46 | CCOc1ccc(CN=Nc2ccc(S(=O)(=O)Nc3ccccc3C(=O)O)cc2[N+](=O)[O-])cc1OC [SMR001308940] | 3.51 µM
47 | Cc1ccc(-c2csc(-n3[nH]c(C)c(N=Nc4ccccc4O)c3=O)n2)cc1 | 3.69 µM
48 | Cc1nnc(NS(=O)(=O)c2ccc(/N=N/c3ccc(N)nc3N)cc2)s1 | 11.5 µM
49 | Cc1cc(=O)n(-c2ccc(Cl)c(C(=O)O)c2)[nH]1 [2-Chloro-5-(3-methyl-5-oxo-4,5-dihydro-pyrazol-1-yl)-benzoic acid] | 8.96 µM
50 | O=C(O)Cc1sc(N=NCc2ccccc2)nc1-c1ccccc1 | 5.14 µM
51 | Cc1ccc(OCC(=O)NN=C/C=C/c2ccco2)cc1 [MLS000563872] | 6 µM
52 | CCOc1ccccc1/N=C1\SCCCN1C | 23 µM
53 | O=[N+]([O-])c1cccc(-c2csc(N=NCc3cccc(O)c3)n2)c1 [3-[[[4-(3-nitrophenyl)-1,3-thiazol-2-yl]hydrazinylidene]methyl]phenol] | 10.8 µM
54 | O=C1Nc2ccc([N+](=O)[O-])cc2/C1=N/NC(=O)c1ccccc1Cl [2-chloro-N'-(5-nitro-2-oxoindol-3-yl)benzohydrazide] | 6.44 µM
55 | O=C(CSc1nc(O)cc(=O)[nH]1)Nc1ccccc1[N+](=O)[O-] [SMR000620617] | 4.04 µM
56 | CCOc1cc(CN=Nc2nc(O)c(CC(=O)O)s2)ccc1OCc1ccccc1Cl | 4.28 µM
57 | Cc1ccc(-n2[nH]c(C)c(CN=Nc3ccc([N+](=O)[O-])cc3[N+](=O)[O-])c2=O)cc1 [SMR000171521] | 6.07 µM
